In the supplement of paper PMC5303821, “Major sulfonate transporter Soa1 in Saccharomyces cerevisiae and considerable substrate diversity in its fungal family” (Nature Communications, 2017):

Columns and labels:
Settings in all cases: sulfur source concentration 200 µM; S. cerevisiae S288C/BY sul1Δ sul2Δ soa1Δ with transporter ortholog inserted at SOA1 locus; sulfur-free B medium, 4% glucose, pH 6.5, sole sulfur source
[1] = tested on: Aspergillus nidulans_XP_661711; experiment: maximal culture density with compound as sole sulfur source (OD600); higher = better growth
[2] = tested on: soa1 del; experiment: as above
[3] = tested on: Aspergillus nidulans_XP_660563; experiment: as above
[4] = tested on: Aspergillus nidulans_XP_660670; experiment: as above
[5] = tested on: Aspergillus nidulans_XP_661733; experiment: as above
[6] = tested on: Saccharomyces eubayanus_SOA2; experiment: as above
[7] = tested on: Ogataea parapolymorpha_XP_013936897; experiment: as above
[8] = tested on: Saccharomyces cerevisiae_SOA1; experiment: as above
[9] = tested on: Metarhizium robertsii_XP_007822519; experiment: as above
[10] = tested on: Aspergillus nidulans (IAM 2006)_astA; experiment: as above
[11] = tested on: Ogataea parapolymorpha_XP_013935289; experiment: as above
[12] = tested on: Fusarium oxysporum_ENH65823; experiment: as above
[13] = tested on: Saccharomyces uvarum_SOA1; experiment: as above
[14] = tested on: Saccharomyces uvarum_SOA2; experiment: as above
[15] = tested on: Aspergillus nidulans_CBF74694; experiment: as above
[16] = tested on: Metarhizium robertsii_XP_007823832; experiment: as above
[17] = tested on: Ogataea parapolymorpha_XP_013932458; experiment: as above
[18] = tested on: Metarhizium robertsii_XP_007821441; experiment: as above
[19] = tested on: Saccharomyces eubayanus_SOA1; experiment: as above
[20] = tested on: Aspergillus nidulans_XP_681611; experiment: as above
[21] = tested on: Aspergillus nidulans_CBF80346; experiment: as above
[22] = tested on: Aspergillus nidulans_XP_661711; experiment: maximal growth rate with compound as sole sulfur source (OD600 per h); higher = better growth / uptake of the sulfur source
[23] = tested on: soa1 del; experiment: as above
[24] = tested on: Aspergillus nidulans_XP_660563; experiment: as above
[25] = tested on: Aspergillus nidulans_XP_660670; experiment: as above
[26] = tested on: Aspergillus nidulans_XP_661733; experiment: as above
[27] = tested on: Saccharomyces eubayanus_SOA2; experiment: as above
[28] = tested on: Ogataea parapolymorpha_XP_013936897; experiment: as above
[29] = tested on: Saccharomyces cerevisiae_SOA1; experiment: as above
[30] = tested on: Metarhizium robertsii_XP_007822519; experiment: as above
[31] = tested on: Aspergillus nidulans (IAM 2006)_astA; experiment: as above
[32] = tested on: Fusarium oxysporum_ENH65823; experiment: as above
[33] = tested on: Saccharomyces uvarum_SOA1; experiment: as above
[34] = tested on: Metarhizium robertsii_XP_007823832; experiment: as above
[35] = tested on: Aspergillus nidulans_XP_681611; experiment: as above

Compound	maximal culture density [1]	maximal culture density [2]	maximal culture density [3]	maximal culture density [4]	maximal culture density [5]	maximal culture density [6]	maximal culture density [7]	maximal culture density [8]	maximal culture density [9]	maximal culture density [10]	maximal culture density [11]	maximal culture density [12]	maximal culture density [13]	maximal culture density [14]	maximal culture density [15]	maximal culture density [16]	maximal culture density [17]	maximal culture density [18]	maximal culture density [19]	maximal culture density [20]	maximal culture density [21]	maximal growth rate [22]	maximal growth rate [23]	maximal growth rate [24]	maximal growth rate [25]	maximal growth rate [26]	maximal growth rate [27]	maximal growth rate [28]	maximal growth rate [29]	maximal growth rate [30]	maximal growth rate [31]	maximal growth rate [32]	maximal growth rate [33]	maximal growth rate [34]	maximal growth rate [35]
N[C@@H](CS(=O)(=O)O)C(=O)O [L-cysteic acid]	1.16	0.254	0.535	1.13	1.3	0.254	0.391	1.46	1.38	1.41	1.51	1.16	1.25	0.234	0.451	1.43	0.331	0.3	0.561	0.861	0.823	0.00852	0.00337	0.00641	0.00837	0.0304	0.00291	0.00557	0.037	0.00861	0.0282	0.01	0.00754	0.028	0.00678
O=S(O)O [sulfite]	0.244	0.222	0.322	0.243	0.274	0.645	0.284	1.6	1	1.6	1.61	0.256	1.61	1.44	0.196	1.56	0.285	0.235	1.58	0.308	0.262	0.004	0.00378	0.00646	0.00402	0.0047	0.00564	0.00463	0.12	0.0114	0.104	0.00381	0.0915	0.0855	0.00588
